In patent US20190218188A1, “NOVEL 5-SUBSTITUTED IMIDAZOLE DERIVATIVES” (Bayer CropScience Aktiengesellschaft, priority 2016, published 2019) one finds chromatographic logP data, which are given here for two compounds.

This data set can be described thus: Log P by HPLC on reversed phase columns (EEC directive 79/831 Annex V.A8). In kind it is physicochemical. Particulars: reversed phase HPLC column; method [a]: LC-UV, acidic range, 0.1% formic acid in water and acetonitrile as eluent (linear gradient 10% to 95% acetonitrile). How it is done:
Measurement of Log P values was performed according to EEC directive 79/831 Annex V.A8 by HPLC (High Performance Liquid Chromatography) on reversed phase columns with the following methods: • ^[a] Log P value is determined by measurement of LC-UV, in an acidic range, with 0.1% formic acid in water and acetonitrile as eluent (linear gradient from 10% acetonitrile to 95% acetonitrile). • ^[b] Log P value is determined by measurement of LC-UV, in a neutral range, with 0.001 molar ammonium acetate solution in water and acetonitrile as eluent (linear gradient from 10% acetonitrile to 95% acetonitrile). • ^[c] Log P value is determined by measurement of LC-UV, in an acidic range, with 0.1% phosphoric acid and acetonitrile as eluent (linear gradient from 10% acetonitrile to 95% acetonitrile). If more than one Log P value is available within the same method, all the values are given and separated by “+”. Calibration was done with straight-chain alkan2-ones (with 3 to 16 carbon atoms) with known Log P values (measurement of Log P values using retention times with linear interpolation between successive alkanones).

Usually chromatographic logP stands for lipophilicity estimated from chromatographic retention. A high value points to a more lipophilic compound.

For `N#Cc1cncn1CC(Cl)(Cc1cccc(F)c1F)C1(Cl)CC1` (centres unmarked) [Example I-02, 1-[2-chloro-2-(1-chlorocyclopropyl)-3-(2,3-difluorophenyl)propyl]-1H-imidazole-5-carbonitrile], the chromatographic logP came to 3.25.
Next, `N#Cc1cncn1CC(F)(Cc1cccc(F)c1F)C1(Cl)CC1` (centres unmarked) [Example I-01, 1-[2-(1-chlorocyclopropyl)-3-(2,3-difluorophenyl)-2-fluorpropyl]-1H-imidazole-5-carbonitrile]: 2.98.
